Reference: Sander's compilation of Henry's law constants (doi:10.1021/je970046g)

Experiment: Henry solubility constant Hcp at 293 K (mol/(m3 Pa))
Details: reference: Hovorka and Dohnal (1997)

Structure (SMILES) | Henry solubility constant Hcp at 293 K
CC(Cl)(Cl)Cl [1,1,1-trichloroethane] | 0.00079
ClC(Cl)C(Cl)Cl [1,1,2,2-tetrachloroethane] | 0.03
ClCC(Cl)Cl [1,1,2-trichloroethane] | 0.015
CC(Cl)CCl (centres undefined) [1,2-dichloropropane] | 0.0046
Clc1cccc(Cl)c1 [1,3-dichlorobenzene] | 0.0047
Clc1ccc(Cl)cc1 [1,4-dichlorobenzene] | 0.0054
ClCc1ccccc1 [(chloromethyl)-benzene] | 0.028
Brc1ccccc1 [bromobenzene] | 0.0061
Clc1ccccc1 [chlorobenzene] | 0.0035
BrCBr [dibromomethane] | 0.015
ClCCl [dichloromethane] | 0.0051
ClC(Cl)=C(Cl)Cl [tetrachloroethene] | 0.00084
BrC(Br)Br [tribromomethane] | 0.023
ClC=C(Cl)Cl [trichloroethene] | 0.0013
